Measurements: PubChem BioAssay (NCI)
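These data come from cells grown in 96-well plates and exposed to compound for 48 hours at five concentrations. GI50: concentration for 50% inhibition of growth. TGI: total growth inhibition.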

Assays:
Test in all cases: NCI-60 cell line screen, 48 h
[1] = tested on: A498 renal
[2] = tested on: CAKI-1 renal
[3] = tested on: HCT-15 colon
[4] = tested on: HOP-62 NSCLC
[5] = tested on: HS 578T breast
[6] = tested on: MDA-MB-435
[7] = tested on: OVCAR-4 ovarian
[8] = tested on: UACC-257 melanoma
[9] = tested on: SR leukemia
[10] = tested on: TK-10 renal

Structure (SMILES)	TGI [1]	TGI [2]	TGI [3]	TGI [4]	TGI [5]	TGI [6]	TGI [7]	TGI [8]	TGI [9]	TGI [10]	GI50 [1]	GI50 [4]	GI50 [6]
CCOC(=O)c1cc2c3c(c(C(C)=O)c(OC)c2[nH]1)N(C(=O)CC)CC3	> 100 µM	35.9 µM	34.2 µM	56.9 µM	57.9 µM	50.3 µM	40.9 µM	49.4 µM	–	–	–	–	–
COc1ccc(/C=c2\[nH]c3nc(=O)c(N4CCCCC4)c(N)n3c2=O)cc1	> 100 µM	> 100 µM	> 100 µM	–	> 100 µM	> 100 µM	> 100 µM	> 100 µM	> 100 µM	> 100 µM	–	–	–
O=Nc1c(-c2c(O)[nH]c3ccc(I)cc23)[nH]c2ccccc12	> 27.6 µM	> 100 µM	> 39.9 µM	> 30.8 µM	> 29.8 µM	> 100 µM	14.8 µM	> 100 µM	–	> 41.5 µM	–	–	–
Cc1ccc(-n2nncc2[Si](C)(C)C)s1	> 100 µM	> 100 µM	> 100 µM	–	> 100 µM	> 100 µM	> 100 µM	> 100 µM	–	> 100 µM	–	–	–
Oc1c(Cl)cc2cc1-c1cc(cc(Cl)c1O)CCc1c(cc(Cl)c(O)c1Cl)-c1cc(Cl)c(c(Cl)c1O)/C=C\2	30.8 µM	–	17.4 µM	16 µM	33.7 µM	21.7 µM	24 µM	35.8 µM	> 50 µM	–	–	–	–
CC(C)[C@H](C)/C=C/[C@@H](C)C1CC[C@H]2[C@@]34C=C[C@]5(C[C@@H](O)CC[C@]5(C)[C@H]3CC[C@]12C)OO4 (stereo partly specified)	57.3 µM	55.3 µM	> 100 µM	> 100 µM	–	91.6 µM	> 100 µM	> 100 µM	–	> 100 µM	–	–	–
O=C1C(N2CCN(CCOCCO)CC2)=C(Cl)C(=O)c2ncccc21	> 100 µM	31.8 µM	37.4 µM	> 100 µM	–	–	34.8 µM	39.9 µM	–	48.5 µM	> 100 µM	> 100 µM	18.5 µM
O=C(O)CSC1=NNC2(C(=O)N1)c1ccccc1-c1ccccc12	–	> 10 µM	> 10 µM	> 10 µM	> 10 µM	> 10 µM	> 10 µM	> 10 µM	> 10 µM	> 10 µM	–	–	–
COc1ccc(/C=C2\CCCc3ccccc3C2=O)cc1	–	> 66.7 µM	> 33.1 µM	76.7 µM	37.1 µM	53.1 µM	> 100 µM	37.8 µM	> 32 µM	> 96.6 µM	–	–	–
O=C1Nc2cccc(Cl)c2/C1=C\c1c(-c2ccccc2)nc2n1CCS2	39.4 µM	73.8 µM	83.1 µM	66.1 µM	61.4 µM	36.5 µM	–	51.4 µM	53.2 µM	45.1 µM	–	–	–
C=C(Br)C[N+]12CN3CN(CN(C3)C1)C2	> 100 µM	> 100 µM	> 100 µM	> 100 µM	> 100 µM	> 100 µM	> 100 µM	> 100 µM	> 100 µM	–	–	–	–
